Experimental findings from US10125358B2, “Methods and compounds for increasing threonyl-tRNA synthetase activity” (UNIVERSITY OF VERMONT AND STATE AGRICULTURAL COLLEGE, priority 2012, dated 2018) are described below.

Assay [1] concerns the target T1, TARS (Homo sapiens, UniProt P26639).
T1 sequence (P26639 1-723): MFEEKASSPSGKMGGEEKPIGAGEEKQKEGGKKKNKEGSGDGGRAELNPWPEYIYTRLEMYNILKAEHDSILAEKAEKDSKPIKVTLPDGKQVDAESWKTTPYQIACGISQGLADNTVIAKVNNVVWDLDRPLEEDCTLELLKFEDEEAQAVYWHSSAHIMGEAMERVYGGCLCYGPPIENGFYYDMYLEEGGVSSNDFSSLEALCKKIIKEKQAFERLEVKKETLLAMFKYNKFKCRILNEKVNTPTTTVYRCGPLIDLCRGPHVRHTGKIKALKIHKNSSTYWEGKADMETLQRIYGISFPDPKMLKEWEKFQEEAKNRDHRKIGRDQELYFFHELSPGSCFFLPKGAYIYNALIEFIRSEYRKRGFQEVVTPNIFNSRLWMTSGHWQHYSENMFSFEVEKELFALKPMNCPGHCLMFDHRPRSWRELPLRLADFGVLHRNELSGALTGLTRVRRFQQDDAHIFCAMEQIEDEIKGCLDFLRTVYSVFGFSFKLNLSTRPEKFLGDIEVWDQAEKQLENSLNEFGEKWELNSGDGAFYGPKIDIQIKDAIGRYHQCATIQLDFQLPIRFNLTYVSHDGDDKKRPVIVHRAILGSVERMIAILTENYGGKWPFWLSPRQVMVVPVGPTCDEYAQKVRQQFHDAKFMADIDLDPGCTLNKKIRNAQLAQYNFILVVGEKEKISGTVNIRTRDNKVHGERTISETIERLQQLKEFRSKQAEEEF
As to the kind of experiment: Ap4G formation assay (TLC, [α-32P]-GTP). The format is biochemical. Set-up: His6 (N); made in house; host or cells: E. coli Rosetta 2 (DE3)pLysS, plasmid pET28a hctThrRS.

For a further assay, the system named is HUVEC. The assay is described as follows: Transwell migration assay. As to conditions: 4 h. It counts as cell-based, human. On the procedure:
Transwell Migration Assay—
Migration was assessed using transwell inserts (Svensson, Kucharzewska et al. 2011). […] Cultures were incubated for 4 h, fixed in 10% formalin, and stained with 10 μg/ml DAPI solution (Roche) following removal of cells from the top layer of the chamber with a cotton swab. Migrated cells were imaged using a 4× objective on the Olympus IX70 Inverted microscope (Olympus). DAPI-stained nuclei were counted using ImageJ software.

Assay [2] concerns the target T1, TARS. The assay is described as follows: GTPase (GTP hydrolysis) assay. The format is biochemical. Details: His6 (N); made in house; host or cells: E. coli Rosetta 2 (DE3)pLysS, plasmid pET28a hctThrRS. As to conditions: for GTP hydrolysis rate: 2 mM GTP.
Assay [3] deals with Human umbilical vein endothelial cells (HUVECs). As to the kind of experiment: In vitro endothelial tube formation assay on Matrigel. The format is cell-based. On the procedure:
In Vitro Tube Formation Assay—
Tube formation assays were performed as described (Arnaoutova and Kleinman 2010; Cassavaugh, Hale et al. 2011). Human Umbilical Vein Endothelial Cells (HUVECs) were seeded in 48-well plates (1.5×10^4 cells/well) coated with 100 μl of Matrigel™ Basement Membrane Matrix Growth Factor Reduced (BD Biosciences, San Jose, Calif.) and incubated in Clonetics® EGM®-2 complete media (Lonza, Annandale, N.J.) or EGM®-2 with reduced serum (0.2% fetal bovine serum). Cells were incubated at 37° C. for 6 h then fixed in 10% formalin. Fixed samples were imaged by phase-contrast microscopy or stained with Oregon Green 488 Phalloidin (Molecular Probes, Eugene, Oreg.) then imaged with fluorescence microscopy (2× objective). Number of tubes and tube lengths (in pixels) were quantified using the Simple Neurite Tracer (Longair, Baker et al. 2011) plug-in on ImageJ software (NIH). Statistical analysis of one-way ANOVA was performed with GraphPad Software. Multiple comparisons were performed using the Tukey Test.

The target of assay [4] is T1, TARS. The assay is described as follows: Ap4A formation assay (TLC, [α-32P]-ATP). It counts as biochemical. Set-up: His6 (N); made in house; host or cells: E. coli Rosetta 2 (DE3)pLysS, plasmid pET28a hctThrRS.
For assay [5], the system named is chorioallantoic membrane (CAM) of chicken embryos. As to the kind of experiment: Chick chorioallantoic membrane (CAM) assay. The format is in vivo. The protocol:
Chick Chorioallantoic Membrane Assay—
Fertilized chicken eggs (Sunrise Farms, Catskill, N.Y.) day 1-2 post-laying were incubated in a humidified incubator at 37° C. for 72 h. Cleaned eggs were cracked and plated in a sterile 10 cm^2 tissue culture-treated dish and incubated at 37° C. for another 7 days. On developmental day 10, 1 mm^3 sterile gelatin sponge pieces (Surgifoam®; Johnson & Johnson Wound Management, Somerville, N.J.) were placed within the outer one-third of the membrane between large vessels. […] All compounds were applied in 10 μl to the CAM every 24 h for 72 h. Images were taken using a Leica MZ6 stereomicroscope every 24 h. Compounds were scored according to a modified version of Intensity Scoring as previously described (Ribatti, Nico et al. 2006). Briefly, each experimental condition was given a blinded score from 0-5 based on the change in the extent of vessel convergence and formation in proximity to the sponge from day 0 to day 3. Total score is averaged individual experimental condition scores from at least 15 replicates.
Fertilized chicken embryos were cultured ex-ova and, starting at developmental day 10, agents were applied daily to gelfoam sponges on the CAM. Images were recorded daily over 72 h and scored blindly according to a modified version Intensity Scoring as previously described (Ribatti, Nico et al. 2006). Additional details regarding methods are provided in the Methods and Materials section of Example 1.

The test system of another assay is HUVECs. The assay is described as follows: Endothelial cell proliferation assay (alamarBlue). It counts as cell-based, human. On the procedure: Endothelial Cell Proliferation Assay—
The […] alamarBlue® (Invitrogen) reagent was used to assess cell proliferation (Ahmed, Gogal et al. 1994). HUVECs were seeded in a 96-well dish (1×10^3 cells/well) and grown for 48 h in EGM®-2 media. […] After 48 h, 72 h, or 96 h in culture, 10 μl/well premixed alamarBlue® (Invitrogen) was added and after 3 h at 37° C. the amount of reduced alamarBlue® was quantified by fluorescence (excitation at 530 nm, emission at 590 nm) on a microplate reader (Synergy™ HT, BioTek, Winooski, Vt.).
(In general: Alamar Blue is a resazurin reagent that responds to reducing activity.)

Entries after “also recorded” stand apart in the source; their conditions may differ.

Regarding `C[C@@H]1C[C@H](C)C[C@H](C)[C@@H](O)CC(=O)O[C@H]([C@@H]2CC[C@H]2C(=O)O)C/C=C/C=C(/C#N)[C@H](O)[C@@H](C)C1` [BC194], the “Ap4G synthesis, inhibition (qualitative)” value on TARS [1] (human TARS, 10 μM compound) is “at least partially inhibited”. For the same molecule, the “reduction of Ap4G reaction rate” value on TARS [1] (wildtype TARS, 10 μM BC194) is 57%. In the assay on HUVEC (10 nM BC194 with 50 ng/ml VEGF or 100 nM TARS), the “VEGF- and TARS-mediated migration, effect of BC194” value was “reduced both the migration effects of VEGF and TARS”. For the same molecule, the “change of TARS GTPase activity upon treatment with inhibitor” value at TARS [2] (10 μM compound) is “no observable change”. Further, the “number of branches formed by endothelial cells in tube formation assay” value in assay [3] (HUVECs on Matrigel, full serum media, 6 h, range of BC194 concentrations) was “sensitive to subnanomolar concentrations; also recorded: inhibits endothelial tube formation”. For the same molecule, the “tube (branch) length” value in assay [3] (HUVECs, range of BC194 concentrations) was “unaffected; also recorded: does not affect”. In addition, the “concentration required to affect tube formation relative to that required to detect unfolded protein response (phospho-eIF2α) and apoptosis (cleaved caspase-3)” value in assay [3] (lower) is on record as 100 fold. Besides, the “Ap4A synthesis, inhibition (qualitative)” value at TARS [4] (human TARS, 10 μM compound) was “at least partially inhibited”. Besides, the “decrease in Ap4A formation activity” value on TARS [4] (wildtype TARS, 10 μM compound) is 31.0%. Besides, the “CAM vessel formation, effect of inhibitor” value in assay [5] (BC194 10 nM applied daily, basal level and after stimulation with bFGF or VEGF) is “inhibited vessel formation”. Moreover, the “VEGF proliferative response, effect of BC194” value in the assay on HUVECs (HUVECs, 50 ng/ml VEGF, 10 nM BC194) is on record as “did not significantly reduce”. For the same molecule, the proliferation entry in the assay with HUVECs (HUVECs, BC194 concentrations below 100 nM) is recorded as “unaffected”.

B1: TARS: N-terminal His6-tagged human threonyl-tRNA synthetase expressed and purified from E. coli; SEQ ID NO:2 (protein, listed as Homo sapiens)
chain: T1 sequence (P26639 1-723)
modifications: N-terminal His6 tag
For B1, the Ap4G formation rate in the assay with TARS [1] (2 mM ATP, 2 mM threonine, 2 mM GTP) was 0.1639 Ap4G/active site/min. The “migration of endothelial cells” value with HUVEC (100 nM protein in migration compartment) is listed as “significantly increased migration; also recorded: selectively induces migration”. The GTP hydrolysis rate result is “potent GTPase activities” with TARS [2] (listed as human TARS) and 0.3033 GDP/active site/min with TARS [2] (listed as wildtype). Besides, the “number of tube branches” value in assay [3] (100 nM purified recombinant human TARS added to low serum (0.2% FBS) media, 6 h) is “significantly increased; also recorded: promotes angiogenesis”. This molecule also showed an Ap4A production rate with TARS [4] (5 μM enzyme, 2 mM threonine, 2 mM ATP) of 0.1391 Ap4A/active site/min. For the same molecule, the “sensitivity of synthetase-induced CAM angiogenesis to BC194” value in assay [5] (protein plus BC194 applied to CAM) is “sensitive to BC194”. Further, the “CAM vessel formation / vascularity, effect of applied synthetase” value in assay [5] (purified protein applied daily to gelfoam sponge, 72 h) is “stimulated vessel formation; also recorded: induces in vivo angiogenesis”. Moreover, in the assay on HUVECs (HUVECs in low serum (0.2% FBS) media), the “cell proliferation, effect of TARS” value was “did not exert a significant effect; also recorded: does not significantly affect cell proliferation”.
